Data on six compounds can be found in ChEMBL document CHEMBL3044792, “In vitro antioxidant properties and in vivo lowering blood lipid of Forsythia suspense leaves” (Med Chem Res, 2010).

In brackets after ≈: the same amount, converted by molar mass. Activity calls are given as the source filed them. The rule behind the calls is not given here.

The IC50 is the midpoint of a concentration-inhibition curve.

What all share (type): functional
The subject of test [1] is Mus musculus. As to the kind of experiment: Antioxidant activity in high cholesterol diet fed Mus musculus KM (mouse) assessed as MDA level in liver at 150 mg/kg, ig for 10 days (reference value: 13.6188 +/- 4.2522 nmol/ml). The following applies: route intragastric.
A short description of test [2]: Antioxidant activity assessed as ferric ion reducing activity measured as trolox equivalents by FRAP assay.
Test [3] is described as follows: Antioxidant activity assessed as ABTS radical scavenging activity.
The test system of test [4] is Radical scavenging activity. As to the kind of experiment: Antioxidant activity assessed as DPPH radical scavenging activity after 30 min. On the technique in general: DPPH is a stable violet radical that fades when it is reduced.
Test [5] deals with Mus musculus. The test is described as follows: Hypolipidemic activity in high cholesterol diet fed Mus musculus KM (mouse) assessed as total cholesterol level at 150 mg/kg, ig for 10 days (reference value: 7.3219 +/- 1.00196 mmol/l). The following applies: route intragastric.
Test [6] relates to Mus musculus. The test is described as follows: Hypolipidemic activity in high cholesterol diet fed Mus musculus KM (mouse) assessed as triglyceride level at 150 mg/kg, ig for 10 days (reference value: 0.9359 +/- 0.2817 mmol/l). The following applies: route intragastric.
Test [7] has as its system Mus musculus. The test is described as follows: Hypolipidemic activity in high cholesterol diet fed Mus musculus KM (mouse) assessed as low density lipoprotein cholesterol at 150 mg/kg, ig for 10 days (reference value: 4.2972 +/- 1.1725 mmol/l). The following applies: route intragastric.
The subject of test [8] is Mus musculus. The test is described as follows: Hypolipidemic activity in high cholesterol diet fed Mus musculus KM (mouse) assessed as high density lipoprotein cholesterol at 150 mg/kg, ig for 10 days (reference value: 2.6953+/- 0,58099 mmol/l). As to conditions: route intragastric.
Test [9] deals with Mus musculus. The test is described as follows: Hypolipidemic activity in high cholesterol diet fed Mus musculus KM (mouse) assessed as high density lipoprotein cholesterol at 70 mg/kg, ig for 10 days (reference value: 1.028 +/- 0.139 mmol/l). As to conditions: route intragastric.
Test [10] has as its system Mus musculus. As to the kind of experiment: Hypolipidemic activity in high cholesterol diet fed Mus musculus KM (mouse) assessed as low density lipoprotein cholesterol at 70 mg/kg, ig for 10 days (reference value: 3.386 +/- 0.958 mmol/l). As to conditions: route intragastric.
The test system of test [11] is Mus musculus. As to the kind of experiment: Hypolipidemic activity in high cholesterol diet fed Mus musculus KM (mouse) assessed as triglyceride level at 70 mg/kg, ig for 10 days (reference value: 1.391 +/- 0.351 mmol/l). The following applies: route intragastric.
The subject of test [12] is Mus musculus. As to the kind of experiment: Hypolipidemic activity in high cholesterol diet fed Mus musculus KM (mouse) assessed as total cholesterol level at 70 mg/kg, ig for 10 days (reference value: 4.402 +/- 0.8 mmol/l). As to conditions: route intragastric.
Test [13] relates to Mus musculus. As to the kind of experiment: Antioxidant activity in high cholesterol diet fed Mus musculus KM (mouse) assessed as MDA level in liver at 70 mg/kg, ig for 10 days (reference value: 9.95 +/- 0.15 nmol/ml). The following applies: route intragastric.

Regarding `C[C@H]1[C@H](C)CC[C@]2(C(=O)O)CC[C@]3(C)C(=CC[C@@H]4[C@@]5(C)CC[C@H](O)C(C)(C)[C@@H]5CC[C@]43C)[C@H]12` [URSOLIC ACID], the Activity is 7.326 nmol/mL in test [1]; 13.6 µmol/g in test [2]; 5.2196 mmol/L in test [5]; 0.4322 mmol/L in [6]; 1.5655 mmol/L in test [7]; 2.4373 mmol/L in [8]. The IC50 result in test [3] and in [4] was “Not Active” throughout.
For `COc1cc([C@@H]2OC[C@@H]3[C@H]2CO[C@H]3c2ccc(O)c(OC)c2)ccc1O` [(+)-PINORESINOL], the Activity in test [2] was 2580 µmol/g. For the same compound, the IC50 in test [3] is 3.08 mg/L (≈ 8.59 µM); in test [4], 8.66 mg/L (≈ 24.2 µM).
`O=c1c(O)c(-c2ccc(O)c(O)c2)oc2cc(O)cc(O)c12` [QUERCETIN]: the outcome in [2] was inactive. For the same compound, in test [4], the IC50 was determined as 1.03 mg/L (≈ 3.41 µM).
For the compound `C[C@@H]1O[C@@H](OC[C@H]2O[C@@H](Oc3c(-c4ccc(O)c(O)c4)oc4cc(O)cc(O)c4c3=O)[C@H](O)[C@@H](O)[C@@H]2O)[C@H](O)[C@H](O)[C@H]1O` [RUTIN], the Activity in test [9] was determined as 1.422 mmol/L; in test [10] it was 2.639 mmol/L; in test [11], 0.828 mmol/L; in [12], 3.124 mmol/L; in test [13], 5.1 nmol/mL. Moreover, in test [2], the result was inactive. Moreover, the results for the 50% inhibitory concentration (IC50) in test [3] and in [4] were 4.65 mg/L (≈ 7.62 µM) and 1.83 mg/L (≈ 3 µM), respectively.
Regarding `COc1cc([C@H]2OC[C@H]3[C@@H]2CO[C@H]3c2ccc(OC)c(OC)c2)ccc1O` [PHILLYGENIN], the Activity in [1] amounted to 7.9321 nmol/mL; in test [2], 2440 µmol/g; in [5] it was 7.2123 mmol/L; in [6], 0.3249 mmol/L; in [7], 3.1861 mmol/L; in test [8] it was 2.4571 mmol/L. The half-maximal inhibitory concentration (IC50) in [3] worked out at 3.58 mg/L (≈ 9.61 µM); in [4], 15.51 mg/L (≈ 41.6 µM).
As to `Cc1cc(C(C)(C)C)c(O)c(C(C)(C)C)c1` [BUTYLATED HYDROXYTOLUENE], in [2], the Activity came to 1750 µmol/g. Also, the IC50 came to 6.04 mg/L (≈ 27.4 µM) in test [3] and 17.21 mg/L (≈ 78.1 µM) in [4].
